Experimental data reported in patent publication US20130244963A1 (Portola Pharmaceuticals, Inc., priority 2010, published 2013).

Key:
[1] = test system: collagen induced arthritis (CIA); assay: Rat Collagen Induced Arthritis (CIA) Model, hind paw inflammation score; type: in vivo
From the text: Holmdahl R, Lorentzen J C, Lu S, Olofsson P, Wester L, Holmberg J, et al. Arthritis in rats with non-immunogenic adjuvants as models for rheumatoid arthritis. […] On day 10, the rats were boosted with a second subcutaneous injection. Test article administration was initiated when at least one hind paw was inflamed (clinical arthritis score=1) and enrollment into a treatment group was designated as day 1 of the study for each individual animal (n=4 to 8/dose group). Progression of disease was evidenced by increased edema and erythema of one or both ankle joints, followed by the involvement of the metatarsal and interphalangeal joints. […] Hind paws were scored daily (inflammation score) for progression of disease and evaluated for histopathological changes in cartilage structure, cellularity, matrix glycoaminoglycans, and synovial inflammation at the end of the 16-day treatment course. […] In Tables below, mean scores are calculated for all animals in dosed group over the entire experimental time course.

[2] = Lymphocyte counts in rats with bovine collagen antibody mediated inflammation; type: in vivo, rat; conditions: administered as a single agent
From the text: In 7 control rats treated with vehicle, lymphocyte count was […]. In 4 rats treated with dexamethasone, count=2.32×10^3/μL, p=0.42. However 3 out of 4 of rats did suffer from lymphopenia.

Syk (Y525/526) = assay: BCR-induced Syk (Y525/526) autophosphorylation in NHL cell lines; type: cell-based; conditions: Homo sapiens, SU-DHL-4; SU-DHL4; read-out: BCR-induced Syk (Y525/526) auto-phosphorylation (IC50)
pBLNK = assay: BCR-induced pBLNK formation in NHL cell lines; type: cell-based; conditions: Homo sapiens
pERK [3] = assay: BCR-induced pERK formation in NHL cell lines; type: cell-based; conditions: Homo sapiens
pAKT = assay: BCR-induced pAKT formation in NHL cell lines; type: cell-based; conditions: Homo sapiens, Ramos
SU-DHL4 [4] = assay: Induction of apoptosis, Annexin V binding; type: cell-based
SU-DHL6 [5] = assay: Induction of apoptosis, Annexin V binding; type: cell-based
SU-DHL4 [6] = assay: Induction of apoptosis, caspase 3 cleavage; type: cell-based
SU-DHL6 [7] = assay: Induction of apoptosis, caspase 3 cleavage; type: cell-based
pERK [8] = assay: B cell activity in human whole blood: BCR-induced pERK formation; type: cell-based; conditions: healthy normal volunteers, ex vivo
CD69 [9] = assay: B cell activity in human whole blood: BCR-induced CD69 expression; type: cell-based; conditions: healthy normal volunteers, ex vivo
CD69 [10] = assay: Whole blood B cell activation (CD69) in RA patients with or without MTX; type: cell-based, human; conditions: blood from RA patients on stable doses of MTX (n=18) versus without MTX (n=14); anti IgD activation
From the text: In vitro study of whole blood B cell activation (CD69) in stable RA patients treated with MTX (n=18) or without MTX (n=14).

DHL4 = assay: Viability of DLBCL cell line DHL4 by luminescent ATP detection (Cell Titer Glo); type: cell-based; conditions: single agents; three days; ATP luminescence
Protocol: The final concentration of solvent (DMSO) during experimental time course was 1%. The robotic system Biomek 2 was used for all pipetting steps. After three days at 37 degrees in a tissue culture incubator, viability of cells was determined by lysis and luminescent ATP detection. ATP detection was carried out by addition of 20 μL Cell Titer Glo (Promega) following the protocol provided by manufacturer.
The concentrations of the inhibitors required to obtain 50, 75 or 90 percent inhibition are plotted in an isobologram (Tallarida R J. Dose response relations in pharmacology, Chapman and Hall/CRC, 2000).

leukocytes = assay: Leukocyte rolling and adhesion in whole blood on collagen type 1 + JAM-C surface; type: cell-based, human; conditions: for percentage increase in fluorescence intensity over baseline: Compound 1 3 uM
From the text: Junction adhesion molecule C (JAM-C) mediates recruitment and adhesion of leukocytes to synovium of patients with rheumatoid arthritis (Rabquer B J, Arthritis Rheum, 2008; 58(10):3020-9). This is an important step in the etiology of rheumatoid arthritis and disruption of this activity may have therapeutic benefit in the treatment of patients with inflammatory diseases such as RA. In order to use an in-vitro experimental system to mimic migration and adhesion of leukocytes, we have used a collagen and JAM-C coated surface for the assay.
Leukocyte rolling and adhesion in human whole blood (from healthy normal volunteers or patients with rheumatoid arthritis) was monitored using real time fluorescence microscopy. […] Prior to experimentation, leukocytes were labeled in whole blood with Rhodamine 6G to permit visualization by fluorescence microscopy. The increase in fluorescence intensity is proportional to the amount of fluorescently labeled leukocytes recruited under the area of observation. […] For quantitation of inhibitory activity (TABLE), data are presented as percentage increase in fluorescence intensity over baseline 180 and 360 sec post initiation of the blood perfusion (see FIG. 4).

[11] = Compound 1 5 mg/kg, first experimental design (5/15/50 mg/kg)
[12] = Compound 1 5 mg/kg, second experimental design (5/10/15 mg/kg)
[13] = Compound 1 10 mg/kg, second experimental design (5/10/15 mg/kg)
[14] = Compound 1 15 mg/kg, first experimental design (5/15/50 mg/kg)
[15] = Compound 1 15 mg/kg, second experimental design (5/10/15 mg/kg)
[16] = Compound 1 50 mg/kg, first experimental design (5/15/50 mg/kg)

SMILES: NC(=O)c1cnc(N[C@@H]2CCCC[C@@H]2N)nc1Nc1cccc(-n2nccn2)c1 [Compound 1, 4-(3-(2H-1,2,3-triazol-2-yl)phenylamino)-2-((1R,2S)-2-aminocyclohexylamino)pyrimidine-5-carboxamide]
- Maximum Inflammation Score measurement [1, 11]: 5.625
- Mean Inflammation Score [1, 11]: 4.868
- Minimum Inflammation Score measurement [1, 11]: 1.5
- Maximum Inflammation Score measurement [1, 12]: 4.75
- Mean Inflammation Score [1, 12]: 3.57
- Minimum Inflammation Score measurement [1, 12]: 1.38
- Maximum Inflammation Score measurement [1, 13]: 3.00
- Mean Inflammation Score [1, 13]: 2.15
- Minimum Inflammation Score measurement [1, 13]: 1.13
- Maximum Inflammation Score measurement [1, 14]: 1.125
- Mean Inflammation Score [1, 14]: 0.949
- Minimum Inflammation Score measurement [1, 14]: 0.75
- Maximum Inflammation Score measurement [1, 15]: 1.38
- Mean Inflammation Score [1, 15]: 1.016
- Minimum Inflammation Score measurement [1, 15]: 0.63
- Maximum Inflammation Score measurement [1, 16]: 1.0
- Mean Inflammation Score [1, 16]: 0.169
- Minimum Inflammation Score measurement [1, 16]: 0
- effect on lymphocyte counts [2]: does not produce a reduction in lymphocyte counts
- IC50 (pBLNK; SU-DHL-4, SU-DHL4): 160 nM
- IC50 (pBLNK; SU-DHL-6, SU-DHL6): 10 to 20 nM
- IC50 (pERK [3]; Ramos): 0.05 to 0.125 µM
- IC50 (pERK [3]; SU-DHL-6, SU-DHL6): 0.1 µM
- IC50 (pAKT): 0.05 to 0.125 µM
- Induction of apoptosis— Annexin V binding (% +ve cells) (SU-DHL4 [4]): 15.5 % +ve cells
- Induction of apoptosis— Annexin V binding (% +ve cells) (SU-DHL6 [5]): 20.3 % +ve cells
- Induction of apoptosis— caspase 3 cleavage (% +ve cells) (SU-DHL4 [6]): 26 % +ve cells
- Induction of apoptosis— caspase 3 cleavage (% +ve cells) (SU-DHL6 [7]): 47 % +ve cells
- IC50 (pERK [8]): 250 to 500 nM
- IC50 (CD69 [9]): 250 to 500 nM
- Syk inhibitory potency in whole blood B cell activation (CD69) (CD69 [10]): higher (reduced IC50)
- inhibitory activity on viability of DHL4 cells (in words) (DHL4): dose responsive inhibitory activity
- percentage increase in fluorescence intensity over baseline (leukocytes; RA patient #8 on Adalimumab, 180 sec, vehicle 51%): 7%
- percentage increase in fluorescence intensity over baseline (leukocytes; RA patient #8 on Adalimumab, 360 sec, vehicle 94%): 63%
- percentage increase in fluorescence intensity over baseline (leukocytes; RA patient #10 on Methotrexate, 180 sec, vehicle 44%): 29%
- percentage increase in fluorescence intensity over baseline (leukocytes; RA patient #10 on Methotrexate, 360 sec, vehicle 107%): 86%
- percentage increase in fluorescence intensity over baseline (leukocytes; RA patient #11 on Methotrexate + prednisone, 180 sec, vehicle 165%): 69%
- percentage increase in fluorescence intensity over baseline (leukocytes; RA patient #11 on Methotrexate + prednisone, 360 sec, vehicle 178%): 183%
- percentage increase in fluorescence intensity over baseline (leukocytes; RA patient #12 on Etanercept, 180 sec, vehicle 61%): 17%
- percentage increase in fluorescence intensity over baseline (leukocytes; RA patient #12 on Etanercept, 360 sec, vehicle 131%): 53%
- number of adherent leukocytes (in words) (leukocytes; whole blood from RA patients (mild, moderate, severe) on standard of care, in vitro addition of 3 uM): reduces the number of adherent cells
- number of leukocytes adhering to collagen and JAM-C coated surface (in words) (leukocytes; whole blood from healthy donors without inflammatory disease): reduces the number of leukocytes adhering
